The values below come from patent publication US12636319B2, “Pharmaceutical composition for preventing or treating atopic disease containing Akkermansia muciniphila strain” (ENTEROBIOME INC., priority 2020, dated 2026).

≈ marks a conversion by molar mass, not a printed value.

For assay [1], the system named is Akkermansia muciniphila ATCC BAA-835. In words: MIC by CLSI broth microdilution, type strain. It counts as cell-based. The conditions noted are these: ATCCBAA835, test strain ATCC BAA-835.
The test system of assay [2] is Akkermansia muciniphila EB-AMDK19. In words: MIC by CLSI broth microdilution, isolated strain. The conditions noted are these: EBAMDK19, test strain EB-AMDK19. It counts as cell-based. In general terms: Broth dilution looks for growth in wells or tubes with falling amounts of substance.
Assay [3] relates to Bacteroides thetiotaomicron ATCC 29741. In words: MIC by CLSI broth microdilution, QC strain. It counts as cell-based.
Assay [4] concerns Th2/Th1 cytokines. In words: Ratio of Th2/Th1 serum cytokines. It counts as in vivo, mouse. The conditions noted are these: compared to the atopic dermatitis-induced group. The protocol:
(§1) The Akkermansia muciniphila ATCC BAA-835 strain and Akkermansia muciniphila EB-AMDK19 live bacteria used in this experiment were prepared at a concentration of 1×10^8 CFU/150 μl PBS (25% glycerol, 0.05% cysteine/PBS).
To observe atopic dermatitis lesions, 6-week-old NC/Nga mice (weighed about 21 to 25 g, SLC, Inc., Japan) were purchased from Daehan Biolink Co., Ltd. (Chungbuk, Korea). Animal tests were carried out in accordance with the Animal use and Care Protocol of the Institutional Animal Care and Use Committee (IACUC). The animals were acclimated for one week, and then raised for 9 weeks at a constant temperature of 22° C. and a relative humidity of 50 to 60% with a 12-hr light/12-hr dark cycle. […]
At the end of the experiment, the mice were anesthetized with CO2, and blood was collected by cardiac puncture. […] The concentrations of IL-4, IL-12, IFN-γ and IL-6 cytokines were measured using an ELISA kit (Invitrogen, CA, USA), and the results of the measurement are shown in FIGS. 17(A), 17(B), 18(A), and 18(B).
From an immunological point of view, atopic dermatitis is a disease caused by an excessive imbalance between Th1 and Th2 immune responses. Thus, the cytokine concentrations measured as described above were expressed as the ratio of Th2/Th1 cytokines, and the results are shown in FIGS. 19(A), 19(B), 20(A), and 20(B).

Assay [5] has as its system DNCB-induced atopic dermatitis in NC/Nga mice. Description: Dermatitis score (modified SCORAD) in DNCB-induced atopic dermatitis. It counts as in vivo, mouse. As to conditions: week 6, compared to the atopic dermatitis-induced group; oral daily. The method, then:
as §1
(§2) To observe atopic dermatitis lesions, 6-week-old NC/Nga mice (weighed about 21 to 25 g, SLC, Inc., Japan) were purchased from Daehan Biolink Co., Ltd. (Chungbuk, Korea). Animal tests were carried out in accordance with the Animal use and Care Protocol of the Institutional Animal Care and Use Committee (IACUC). The animals were acclimated for one week, and then raised for 9 weeks at a constant temperature of 22° C. and a relative humidity of 50 to 60% with a 12-hr light/12-hr dark cycle.
(§3) The backs of 6-week-old NC/Nga mice were shaved clean, and then left to stand for 24 hours so that fine wounds of the skin were healed. […]
After atopic dermatitis was induced by DNCB, treatment was performed by administering a preparation containing each of dexamethasone (DEX), the ATCC BAA-835 strain and the EB-AMDK19 strain for 6 weeks. […] Skin dryness, edema, erythema/hemorrhage, and erosion/excoriation were scored as follows: no symptoms=0, weak symptoms=1, moderate symptoms=2, and severe symptoms=3.

Assay [6] has the same test system. In words: Spleen weight in DNCB-induced atopic dermatitis. It counts as in vivo, mouse. The conditions noted are these: end of experiment; compared to the atopic dermatitis-induced group. The method, then:
as §1, §2, §3
Thus, the weight of the spleen was measured to observe the effect of the composition for preventing atopic dermatitis on the immune organs of NC/Nga mice with atopic dermatitis induced by DNCB. […] The collected spleen tissues were washed with physiological saline, and then the sizes thereof were visually observed and the weights thereof were measured using a microbalance.

In assay [7] the test system is IgE. In words: Serum IgE concentration by ELISA. It counts as in vivo, mouse. The method, then: as §1, §2
(§4) The backs of 6-week-old NC/Nga mice were shaved clean, and then left to stand for 24 hours so that fine wounds of the skin were healed. 1% 2,4-dinitrochlorobenzene (DNCB) solution (Sigma-Aldrich Korea) was applied to the back of each mouse twice a week for 3 weeks to induce an immune response, and then 0.5% DNCB solution was applied twice a week to induce contact dermatitis. […]
At the end of the experiment, each of the mice was anesthetized with CO2 and blood was collected by cardiac puncture. The collected blood was centrifuged at 10,000 rpm for 5 minutes to separate the serum, and the serum IgE concentration was measured. […]
(In general: In an ELISA, binding on a coated surface is turned into a signal by an enzyme label.)

Assay [8] relates to DNCB-induced atopic dermatitis in NC/Nga mice. In words: Ear edema (ear thickness) in DNCB-induced atopic dermatitis. It counts as in vivo, mouse. The conditions noted are these: at 6 weeks; normal group 0.55 mm, atopic dermatitis-induced group 1.50 mm. The method, then:
as §1, §2, §4
After severe atopic dermatitis was induced, the mice after completion of the experiment were sacrificed by anesthetizing with CO2, and then the degree of edema of both ears was measured by the velocity transformation technique using a thickness gauge (Digimatic thickness gauge, 547-301, Mitutoyo, Japan).

The test system is the same in assay [9]. In words: Scratching frequency in DNCB-induced atopic dermatitis. It counts as in vivo, mouse. The conditions noted are these: scratching for 10 minutes, day before end; compared to the atopic dermatitis-induced group. The method, then:
as §1, §2, §4
The day before the end of the experiment, the frequency of scratching the affected area due to itching was measured. For measurement of the frequency of scratching, each mouse was acclimated for 10 minutes, and then the frequency of scratching for 10 minutes was measured using a counter.

The MIC is the least concentration at which growth counts as inhibited. High values mean weaker potency, low ones greater potency. Take `COc1c(N2C[C@@H]3CCCN[C@@H]3C2)c(F)cc2c(=O)c(C(=O)O)cn(C3CC3)c12` [MXF, moxifloxacin]: the minimum inhibitory concentration (MIC) in [1] is over 32 µg/mL; in assay [2], over 32 µg/mL; in assay [3] (Bacteroides, ATCC29741) it was 8 µg/mL (≈ 19.9 µM).
Turning to `O=C(N[C@H](CO)[C@H](O)c1ccc([N+](=O)[O-])cc1)C(Cl)Cl` [CHL, chloramphenicol], the MIC in assay [1] came out at 4 µg/mL (≈ 12.4 µM); in assay [2], 4 µg/mL (≈ 12.4 µM); in assay [3] (Bacteroides, ATCC29741) it was 8 µg/mL (≈ 24.8 µM).
With Piperacillin-tazobactam [PTZ], the minimal inhibitory concentration (MIC) in assay [3] (QC strain ATCC 29741, broth microdilution, CLSI) is recorded as 8/4.
`CCC[C@@H]1C[C@@H](C(=O)N[C@@H]([C@H]2O[C@H](SC)[C@H](O)[C@@H](O)[C@H]2O)[C@H](C)Cl)N(C)C1` [CLI, clindamycin]: the results for the MIC in [1] and in assay [2] were at most 0.125 µg/mL and 4 µg/mL (≈ 9.41 µM), respectively.
Turning to `C[C@@H]1C[C@H]2[C@@H]3CCC4=CC(=O)C=C[C@]4(C)[C@@]3(F)[C@@H](O)C[C@]2(C)[C@@]1(O)C(=O)CO` [DEX, dexamethasone], in assay [4], the “decrease of IL-6/IFN-γ ratio” value was found to be 12.7% and the “decrease of IL-6/IL-12 ratio” value worked out at 34.5%. In addition, in assay [5], the “decrease in dermatitis score” value was 38.4%. Further, the “decrease in spleen weight” value in [6] is on record as 23.3%. Moreover, the “serum IgE decrease” value in assay [7] (compared to the atopic dermatitis-induced group) worked out at 40.70%. The “serum IgE concentration” value in [7] (end of experiment, ELISA) was 11891.34 ng/mL. The compound further gave an ear edema in assay [8] of 1.00 mm. Further, the “decrease in scratching frequency” value in [9] is recorded as “about 59.4%”.
Turning to `Cc1ncc([N+](=O)[O-])n1CCO` [MTZ, metronidazole], the MIC in [1] was at most 0.25 µg/mL; in assay [2] it was 0.5 µg/mL (≈ 2.92 µM); in assay [3] (Bacteroides, ATCC29741), 2 µg/mL (≈ 11.7 µM).
On the same counts, the results for `C[C@@H](O)[C@H]1C(=O)N2C(C(=O)O)=C(S[C@@H]3CN[C@H](C(=O)N(C)C)C3)[C@H](C)[C@H]12` [MEM, meropenem] are 1 µg/mL (≈ 2.61 µM), 0.5 µg/mL (≈ 1.3 µM) and 0.5 µg/mL (≈ 1.3 µM).
Take `CO/N=C(\C(=O)N[C@@H]1C(=O)N2C(C(=O)O)=CCS[C@H]12)c1csc(N)n1` [CTZ, ceftizoxime]: the MIC amounted to 2 µg/mL (≈ 5.22 µM) in [1]; 1 µg/mL (≈ 2.61 µM) in assay [2]; 16 µg/mL (≈ 41.7 µM) in [3] (Bacteroides, ATCC29741).
